Reference: patent publication US20240299438A1, “METHOD FOR DIAGNOSIS AND TREATMENT OF AUTISM SPECTRUM DISORDER ON BASIS OF ACTIVITY REGULATION MECHANISM OF DORMANT NEURAL STEM CELL” (DONGGUK UNIVERSITY INDUSTRY-ACADEMIC COOPERATION FOUNDATION, priority 2021, published 2024)

Legend:
[1] = tested on: quiescent neural stem cells in SVZ and DG of Shank3-deficient mice; assay: Immunostaining quantification of qNSCs, BrdU+ NSCs and DCX+ cells after drug injection; format: in vivo, mouse; conditions: for number of GFAP+,Sox2+,Dlx2− qNSCs / number of GFAP+,Sox2+,Id2+ qNSCs: 2 weeks after administration, OICR-9429 3 mg/kg, romidepsin 0.25 mg/kg, clozapine 5 mg/kg, once/day, 3 days
Description: (§1) FIG. 5 (A) Immunostaining results of quiescent neural stem cells in the SVZ of control and Shank3 KO mice injected with saline, OICR-9429 (3 mg/kg, once/day, 3 days), romidepsin (0.25 mg/kg, once/day, 3 days), and clozapine (5 mg/kg, once/day, 3 days). The yellow arrows indicate GFAP+Sox2+Dlx2− qNSCs. Scale bar=20 μm. (B) Immunostaining results of quiescent neural stem cells in the DG of control and Shank3 KO mice injected with saline, OICR-9429 (3 mg/kg, once/day, 3 days), romidepsin (0.25 mg/kg, once/day, 3 days), and clozapine (5 mg/kg, once/day, 3 days). The yellow arrows indicate GFAP+Sox2+NeuN− qNSCs. Scale bar=20 μm. (C-E) Quantification results of FAP+Sox2+Id2+ (C) and GFAP+Sox2+Dlx2− (D) qNSCs in the SVZ and GFAP+Sox2+NeuN− (E) qNSCs in the DG. (F) Quantification results of BrdU+ NSCs in the SVZ injected with saline, OICR-9429, romidepsin, and clozapine. Control and Shank3 KO mice injected with each drug were injected intraperitoneally with a daily dose of BrdU (100 mg/kg/day). (G) Quantification results of DCX+ NPCs in the DG of control and Shank3 KO mice injected with each drug. (H) Immunofluorescence analysis of GFAP+,Sox2+,BrdU+ aNSCs in the SVZ of control and Shank3 KO mice injected with each drug. Scale bar=100 μm. (I) Quantification results of BrdU+ cells in the SVZ of saline- or OICR-9429-treated control and Shank3 mice at different time points after TMZ injection. (J) Analysis of protein expression levels of synaptic proteins and glutamate receptor subunits from control or Shank3 KO mice injected with saline or OICR-9429. (K) Results of representative heat maps showing the time spent in 3 chambers to assess the social interactions of control and Shank3 KO mice treated with saline, OICR-9429, romidepsin, clozapine, and VPA. (L-O) Social preference index percentages (Soc vs. NS ratio) in Shank3 KO mice injected with OICR-9429 (L), romidepsin (M), clozapine (N), and VPA (O) for 28 days.
To provide a drug-based therapeutic strategy for autism, Shank3-deficient mice were treated with OICR-9429, which is an antagonist inhibiting H3K4 trimethylation by KMT2A, and the effect was investigated. […] Similarly, OICR-9429 injection reduced the number of GFAP+,Sox2+,NeuN− qNSCs during hippocampal neurogenesis in Shank3-deficient mice (FIGS. 5B and 5E). […] Finally, as a result of treatment with OICR-9429, the number of DCX-positive neuroblasts increased in the brains of Shank3-deficient mice (FIG. 5G).

[2] = tested on: qNSC activity in SVZ of Shank3-deficient mice; assay: Recovery of BrdU-positive cells after temozolomide (TMZ) injection; format: in vivo, mouse; conditions: after 7 days of TMZ injection, relative to control mice
Description: as §1, with “(J) Analysis of protein expression levels of synaptic proteins and glutamate receptor subunits from control or Shank3 KO mice injected with saline or OICR-9429. (K) Results of representative heat maps showing the time spent in 3 chambers to assess the social interactions of control and Shank3 KO mice treated with saline, OICR-9429, romidepsin, clozapine, and VPA. (L-O) Social preference index percentages (Soc vs. NS ratio) in Shank3 KO mice injected with OICR-9429 (L), romidepsin (M), clozapine (N), and VPA (O) for 28 days.” left out

[3] = tested on: Homer1, SAPAP3, GluR1, GluR2, NR2A, NR2B; assay: Protein expression levels of synaptic proteins and glutamate receptor subunits in mice; format: in vivo, mouse; conditions: Shank3-deficient mice
Description: as §1, with “(J) Analysis of protein expression levels of synaptic proteins and glutamate receptor subunits from control or Shank3 KO mice injected with saline or OICR-9429. (K) Results of representative heat maps showing the time spent in 3 chambers to assess the social interactions of control and Shank3 KO mice treated with saline, OICR-9429, romidepsin, clozapine, and VPA. (L-O) Social preference index percentages (Soc vs. NS ratio) in Shank3 KO mice injected with OICR-9429 (L), romidepsin (M), clozapine (N), and VPA (O) for 28 days.” left out

Shank3-deficient mice = assay: Social interaction behavioral test (3 chambers) after drug injection; format: in vivo, mouse; conditions: for time participating in social stimuli: 3-chamber test; for social preference index (persistence of effect): followed for 28 days after injection
Description: as §1
In addition, to investigate the therapeutic effect of OICR-9429, a social interaction behavioral test was performed on Shank3-deficient mice injected with various neuropsychiatric drugs.

[4] = tested on: SHANK3-deficient human radial glia cells; assay: Immunofluorescence of SHANK3-deficient human iPSC-derived neural stem (radial glia) cells; format: cell-based; conditions: five days after treatment
Excerpt: FIG. 6 (A) Immunostaining results of GFAP+,SOX2+,ID2+ and GFAP+,SOX2+,NESTIN+ quiescent neural stem cells (radical glia cell, RGCs) from control or SHANK3-deficient iPSCs. White arrows indicate human RGCs. Scale bar=20 μm. (B) Quantification results of GFAP+,SOX2+,I D2+ RGCs with radial morphology. (C) Quantification results of GFAP+,SOX2+,NESTIN+ RGCs with radial morphology. (D) Immunostaining of GFAP+,SOX2+,EGFR+ aNSC and K167+ proliferating cells. Scale bar=20 μm. (E) Quantification results of GFAP+,SOX2+,EGFR+ aNSCs from control or SHANK3-deficient RGCs. (F) Quantification results of K167+ proliferating cells from control or SHANK3-deficient RGCs. (G) Immunofluorescence analysis of GFAP+,SOX2+,NESTIN+ RGCs from control or SHANK3-deficient NSCs treated with KMT2A-shRNA. The white arrow indicates cells with radial morphology. Scale bar=20 μm. (H) Quantification results of the number of GFAP+,SOX2+,NESTIN+ RGCs with radial morphology and GFAP+,SOX2+,NESTIN+ RGCs with nonradial morphology treated with KMT2A-shRNA. […]
The molecular mechanisms underlying the autism phenotypes associated with SHANK3 deficiency in human iPSC-derived neural differentiation were investigated. […] Additionally, it was analyzed whether or not SHANK3-deficient human radial glia cells are pharmacologically treated by OICR-9429.

[5] = tested on: HOMER1, SAPAP3, GluR1, NR2A; assay: Western blot of synaptic proteins and glutamate receptor subunits in SHANK3-deficient human cultures; format: cell-based

SMILES	number of rapidly dividing cells labeled with BrdU ([1]; SVZ, Shank3-deficient mice)	number of GFAP+,Sox2+,Dlx2− qNSCs ([1]; SVZ, Shank3-deficient mice)	number of GFAP+,Sox2+,Id2+ qNSCs ([1]; SVZ, Shank3-deficient mice)	number of DCX-positive neuroblasts ([1]; brains (DG) of Shank3-deficient mice)	number of GFAP+,Sox2+,NeuN− qNSCs ([1]; hippocampal neurogenesis (DG), Shank3-deficient mice)	BrdU-positive cells after TMZ injection [2]	expression of synaptic proteins Homer1 and SAPAP3 and glutamate receptor subunits GluR1, GluR2, NR2A, and NR2B [3]	time participating in social stimuli (Shank3-deficient mice)	social preference index (persistence of effect) (Shank3-deficient mice)	proportion of GFAP+,SOX2+,NESTIN+ radial glia cells with non-radial morphology ([4]; SHANK3-deficient neural stem cells)	proportion of GFAP+,SOX2+,NESTIN+ radial glia cells with radial morphology ([4]; SHANK3-deficient radial glia cells)	expression levels of synaptic proteins HOMER1 and SAPAP3 and glutamate receptor subunits GluR1 and NR2A [5]
CN1CCN(c2ccc(-c3cccc(CN4CCOCC4)c3)cc2NC(=O)c2c[nH]c(=O)cc2C(F)(F)F)CC1 [OICR-9429]	greatly increased	significantly decreased	significantly decreased	increased	reduced	significantly recovered	significantly restored	significantly more time	gradually improved up to 3 weeks after injection	significant decrease	decreased	greatly increased
CCCC(CCC)C(=O)O [VPA]	–	–	–	–	–	–	–	no significant effect	did not improve	–	–	–
CN1CCN(C2=Nc3cc(Cl)ccc3Nc3ccccc32)CC1 [clozapine]	–	no effect	no effect	–	–	–	–	no significant effect	–	–	–	–
C/C=C1\NC(=O)[C@H]2CSSCC/C=C/[C@H](CC(=O)N[C@H](C(C)C)C(=O)N2)OC(=O)[C@H](C(C)C)NC1=O [romidepsin]	–	no effect	no effect	–	–	–	–	no significant effect	–	–	–	–
